Measurements reported in patent publication US6355799B1, “Substituted benzene compounds, process for their preparation, and herbicidal and defoliant compositions containing them” (ISK Americas Incorporated, priority 1997, dated 2002).

What was measured:
Format in all cases: in vivo
[1] = test system: redroot pigweed (Amaranthus retroflexus, AMARE); assay: Pre-emerge test, greenhouse herbicide activity screening; conditions: for Pre-emerge herbicidal activity, phytotoxicity rating AMARE: rating scale 0-100, 14 days after application
Method in brief: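 Visual ratings on a 0-100 scale (0 no damage, 100 all plants dead) were taken at 14 days after treatment. Rates of 15-1000 g ai/ha in acetone, 187 l/ha, were sprayed onto soil one day after planting (pre-emerge) or onto 2-3 leaf plants with 0.25% v/v surfactant (post-emerge).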

[2] = test system: barnyardgrass (Echinochloa crus-galli, ECHCG); assay: as above; conditions: for Pre-emerge herbicidal activity, phytotoxicity rating ECHCG: rating scale 0-100, 14 days after application
Method in brief: (§1)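 Herbicidal damage is scored 0 (none) to 100 (complete plant death) two weeks after a simulated field spray. Rates span 15–1000 g ai/ha, delivered in acetone at 187 l/ha. For post-emergence treatments, plants have 2–3 leaves and the spray carries 0.25% v/v non-ionic surfactant.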

[3] = test system: green foxtail (Setaria viridis, SETVI); assay: as above; conditions: for Pre-emerge herbicidal activity, phytotoxicity rating SETVI: rating scale 0-100, 14 days after application
Method in brief: as §1

[4] = test system: ivyleaf morningglory (Ipomoea hederacea, IPOHE); assay: as above; conditions: for Pre-emerge herbicidal activity, phytotoxicity rating IPOHE: rating scale 0-100, 14 days after application
Method in brief: as §1

[5] = test system: johnsongrass (Sorghum halepense, SORHA); assay: as above; conditions: for Pre-emerge herbicidal activity, phytotoxicity rating SORHA: rating scale 0-100, 14 days after application
Method in brief: as §1

[6] = test system: lambsquarters (Chenopodium album, CHEAL); assay: as above; conditions: for Pre-emerge herbicidal activity, phytotoxicity rating CHEAL: rating scale 0-100, 14 days after application
Method in brief: as §1

[7] = test system: large crabgrass (Digitaria sanguinalis, DIGSA); assay: as above; conditions: for Pre-emerge herbicidal activity, phytotoxicity rating DIGSA: rating scale 0-100, 14 days after application
Method in brief: as §1

[8] = test system: sicklepod (Cassia obtusifolia, CASOB); assay: as above; conditions: for Pre-emerge herbicidal activity, phytotoxicity rating CASOB: rating scale 0-100, 14 days after application
Method in brief: as §1

[9] = test system: velvetleaf (Abutilon theophrasti, ABUTH); assay: as above; conditions: for Pre-emerge herbicidal activity, phytotoxicity rating ABUTH: rating scale 0-100, 14 days after application
Method in brief: as §1

[10] = test system: field corn (Zea mays L., var. Dekalb 535, CORN); assay: Pre-emerge test, crop safety; conditions: for Pre-emerge phytotoxicity rating, crop damage CORN: rating scale 0-100, 14 days after application
Method in brief: (§2)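 Applied at 15–1000 g ai/ha from acetone in 187 l/ha spray volume. Post-emergence applications included 0.25% v/v non-ionic surfactant and reached plants sown 8–21 days before. Pre-emergence applications were incorporated by surface watering. Efficacy or crop damage was rated on a 0–100 scale after 14 days.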

[11] = test system: upland rice (Oryza sp., var. Tebonnet, RICE); assay: Pre-emerge test, crop safety; conditions: for Pre-emerge phytotoxicity rating, crop damage RICE: rating scale 0-100, 14 days after application
Method in brief: as §2

[12] = test system: barnyardgrass (Echinochloa crus-galli, ECHCG); assay: Post-emerge test, greenhouse herbicide activity screening; conditions: post-emerge; for Post-emerge Herbicidal Activity ECHCG: phytotoxicity rating 0-100 at 14 days after application; for ECHCG phytotoxicity rating: 14 days after application, rating scale 0-100
Method in brief: (§3)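 Compounds in acetone were track-sprayed at 187 l/ha, 15–1000 g ai/ha, onto sandy loam pots. Pre-emerge seeds were sown one day before spraying, with surface watering afterwards. Post-emerge plants were at the 2–3 leaf stage and sprayed with 0.25% v/v non-ionic surfactant. Injury was rated 0–100 at 14 days.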

[13] = test system: green foxtail (Setaria viridis, SETVI); assay: as above; conditions: post-emerge; for Post-emerge Herbicidal Activity SETVI: phytotoxicity rating 0-100 at 14 days after application; for SETVI phytotoxicity rating: 14 days after application, rating scale 0-100
Method in brief: as §3

[14] = test system: ivyleaf morningglory (Ipomoea hederacea, IPOHE); assay: as above; conditions: post-emerge; for Post-emerge Herbicidal Activity IPOHE: phytotoxicity rating 0-100 at 14 days after application; for IPOHE phytotoxicity rating: 14 days after application, rating scale 0-100
Method in brief: as §3

[15] = test system: lambsquarters (Chenopodium album, CHEAL); assay: as above; conditions: post-emerge; for Post-emerge Herbicidal Activity CHEAL: phytotoxicity rating 0-100 at 14 days after application; for CHEAL phytotoxicity rating: 14 days after application, rating scale 0-100
Method in brief: as §3

[16] = test system: large crabgrass (Digitaria sanguinalis, DIGSA); assay: as above; conditions: post-emerge; for Post-emerge Herbicidal Activity DIGSA: phytotoxicity rating 0-100 at 14 days after application; for DIGSA phytotoxicity rating: 14 days after application, rating scale 0-100
Method in brief: as §3

[17] = test system: redroot pigweed (Amaranthus retroflexus, AMARE); assay: as above; conditions: post-emerge; for Post-emerge Herbicidal Activity AMARE: phytotoxicity rating 0-100 at 14 days after application; for AMARE phytotoxicity rating: 14 days after application, rating scale 0-100
Method in brief: as §3

[18] = test system: sicklepod (Cassia obtusifolia, CASOB); assay: as above; conditions: post-emerge; for Post-emerge Herbicidal Activity CASOB: phytotoxicity rating 0-100 at 14 days after application; for CASOB phytotoxicity rating: 14 days after application, rating scale 0-100
Method in brief: as §3

[19] = test system: velvetleaf (Abutilon theophrasti, ABUTH); assay: as above; conditions: post-emerge; for Post-emerge Herbicidal Activity ABUTH: phytotoxicity rating 0-100 at 14 days after application; for ABUTH phytotoxicity rating: 14 days after application, rating scale 0-100
Method in brief: as §3

[20] = test system: field corn (Zea mays L., var. Dekalb 535, CORN); assay: Post-emerge test, crop safety; conditions: post-emerge; for Post-emerge Herbicidal Activity CORN: crop damage rating 0-100 at 14 days after application; for CORN phytotoxicity rating (crop damage): 14 days after application, rating scale 0-100
Method in brief: as §1

[21] = test system: upland rice (Oryza sp., var. Tebonnet, RICE); assay: Post-emerge test, crop safety; conditions: post-emerge; for Post-emerge Herbicidal Activity RICE: crop damage rating 0-100 at 14 days after application; for RICE phytotoxicity rating (crop damage): 14 days after application, rating scale 0-100
Method in brief: as §1

[22] = 250 g ai/ha, phytotoxicity rating 0-100, 14 days after application
[23] = pre-emerge, 63 g ai/ha, 14 days after application, scale 0-100
[24] = 250 g ai/ha, crop damage rating 0-100, 14 days after application

COc1c(Cl)cc(F)c(N2C(=O)c3ccccc3C2=O)c1NC(=O)c1ccc(F)cc1F [13-4]
20: Post-emerge Herbicidal Activity SETVI ([13]; 63 g ai/ha)
40: Pre-emerge herbicidal activity, phytotoxicity rating SORHA ([5]; 250 g ai/ha) | Post-emerge Herbicidal Activity SETVI ([13]; 250 g ai/ha)
100: Pre-emerge herbicidal activity, phytotoxicity rating AMARE ([1]; 250 g ai/ha) | Pre-emerge herbicidal activity, phytotoxicity rating CHEAL ([6]; 63 g ai/ha) | Pre-emerge herbicidal activity, phytotoxicity rating CHEAL ([6]; 250 g ai/ha) | Pre-emerge herbicidal activity, phytotoxicity rating ABUTH ([9]; 250 g ai/ha) | Post-emerge Herbicidal Activity CHEAL ([15]; 250 g ai/ha) | Post-emerge Herbicidal Activity AMARE ([17]; 63 g ai/ha) | Post-emerge Herbicidal Activity CASOB ([18]; 250 g ai/ha) | Post-emerge Herbicidal Activity ABUTH ([19]; 63 g ai/ha) | Post-emerge Herbicidal Activity ABUTH ([19]; 250 g ai/ha)
0: Pre-emerge herbicidal activity, phytotoxicity rating ECHCG ([2]; 63 g ai/ha) | Pre-emerge herbicidal activity, phytotoxicity rating DIGSA ([7]; 63 g ai/ha) | Pre-emerge herbicidal activity, phytotoxicity rating CASOB ([8]; 63 g ai/ha) | Pre-emerge phytotoxicity rating, crop damage CORN ([10]; 63 g ai/ha) | Pre-emerge phytotoxicity rating, crop damage RICE ([11]; 63 g ai/ha) | Post-emerge Herbicidal Activity DIGSA ([16]; 63 g ai/ha)
95: Post-emerge Herbicidal Activity CHEAL ([15]; 63 g ai/ha) | Post-emerge Herbicidal Activity AMARE ([17]; 250 g ai/ha) | Post-emerge Herbicidal Activity CASOB ([18]; 63 g ai/ha)
60: Pre-emerge herbicidal activity, phytotoxicity rating AMARE ([1]; 63 g ai/ha)
10: Pre-emerge herbicidal activity, phytotoxicity rating IPOHE ([4]; 63 g ai/ha) | Pre-emerge herbicidal activity, phytotoxicity rating SORHA ([5]; 63 g ai/ha) | Post-emerge Herbicidal Activity ECHCG ([12]; 63 g ai/ha) | Post-emerge Herbicidal Activity DIGSA ([16]; 250 g ai/ha)
85: Post-emerge Herbicidal Activity IPOHE ([14]; 63 g ai/ha) | Post-emerge Herbicidal Activity IPOHE ([14]; 250 g ai/ha)
50: Pre-emerge herbicidal activity, phytotoxicity rating CASOB ([8]; 250 g ai/ha) | Post-emerge Herbicidal Activity RICE ([21]; 250 g ai/ha)
90: Pre-emerge herbicidal activity, phytotoxicity rating SETVI ([3]; 250 g ai/ha) | Pre-emerge herbicidal activity, phytotoxicity rating IPOHE ([4]; 250 g ai/ha) | Pre-emerge herbicidal activity, phytotoxicity rating DIGSA ([7]; 250 g ai/ha) | Pre-emerge herbicidal activity, phytotoxicity rating ABUTH ([9]; 63 g ai/ha)
15: Pre-emerge phytotoxicity rating, crop damage CORN ([10]; 250 g ai/ha)
30: Pre-emerge herbicidal activity, phytotoxicity rating ECHCG ([2]; 250 g ai/ha) | Pre-emerge herbicidal activity, phytotoxicity rating SETVI ([3]; 63 g ai/ha) | Pre-emerge phytotoxicity rating, crop damage RICE ([11]; 250 g ai/ha) | Post-emerge Herbicidal Activity ECHCG ([12]; 250 g ai/ha) | Post-emerge Herbicidal Activity RICE ([21]; 63 g ai/ha)
5: Post-emerge Herbicidal Activity CORN ([20]; 63 g ai/ha) | Post-emerge Herbicidal Activity CORN ([20]; 250 g ai/ha)

N#CCOc1c(Cl)cc(F)c(-n2c(=O)cc(C(F)(F)F)n(N)c2=O)c1NC(=O)c1ccc2ccccc2c1 [2-188]
45: CORN phytotoxicity rating (crop damage) ([20]; 250 g ai/ha)
25: CORN phytotoxicity rating (crop damage) ([20]; 63 g ai/ha)
100: phytotoxicity rating AMARE [1, 23] | Pre-emerge Herbicidal Activity CHEAL [6, 22] | phytotoxicity rating CHEAL [6, 23] | Pre-emerge Herbicidal Activity ABUTH [9, 22] | IPOHE phytotoxicity rating ([14]; 63 g ai/ha) | IPOHE phytotoxicity rating ([14]; 250 g ai/ha) | CHEAL phytotoxicity rating ([15]; 250 g ai/ha) | ABUTH phytotoxicity rating ([19]; 63 g ai/ha) | ABUTH phytotoxicity rating ([19]; 250 g ai/ha)
90: Pre-emerge Herbicidal Activity IPOHE [4, 22] | phytotoxicity rating ABUTH [9, 23] | AMARE phytotoxicity rating ([17]; 250 g ai/ha) | CASOB phytotoxicity rating ([18]; 250 g ai/ha)
80: Pre-emerge Herbicidal Activity AMARE [1, 22] | CHEAL phytotoxicity rating ([15]; 63 g ai/ha)
10: phytotoxicity rating IPOHE [4, 23] | phytotoxicity rating SORHA [5, 23] | phytotoxicity rating DIGSA [7, 23] | Pre-emerge Herbicidal Activity RICE [11, 24] | phytotoxicity rating RICE (crop damage) [11, 23] | SETVI phytotoxicity rating ([13]; 63 g ai/ha) | DIGSA phytotoxicity rating ([16]; 250 g ai/ha)
40: ECHCG phytotoxicity rating ([12]; 250 g ai/ha) | RICE phytotoxicity rating (crop damage) ([21]; 250 g ai/ha)
0: Pre-emerge Herbicidal Activity CASOB [8, 22] | phytotoxicity rating CASOB [8, 23] | Pre-emerge Herbicidal Activity CORN [10, 24] | phytotoxicity rating CORN (crop damage) [10, 23] | DIGSA phytotoxicity rating ([16]; 63 g ai/ha)
60: Pre-emerge Herbicidal Activity ECHCG [2, 22] | Pre-emerge Herbicidal Activity DIGSA [7, 22]
30: phytotoxicity rating ECHCG [2, 23] | phytotoxicity rating SETVI [3, 23] | Pre-emerge Herbicidal Activity SORHA [5, 22] | ECHCG phytotoxicity rating ([12]; 63 g ai/ha)
85: AMARE phytotoxicity rating ([17]; 63 g ai/ha)
55: CASOB phytotoxicity rating ([18]; 63 g ai/ha)
50: Pre-emerge Herbicidal Activity SETVI [3, 22]
20: SETVI phytotoxicity rating ([13]; 250 g ai/ha) | RICE phytotoxicity rating (crop damage) ([21]; 63 g ai/ha)
